Reference: ChEMBL document CHEMBL2311407, “Design and synthesis of diazatricyclodecane agonists of the G-protein-coupled receptor 119” (J Med Chem, 2013)

Test: Apparent intrinsic clearance in human liver microsomes
Assay type: ADME, Microsome
Conditions: read-out: CLH(app)

CLint scaled [mL/min/kg]	SMILES
> 30	CC[C@@H](C)OC(=O)N1C2CC3CC1CC(C2)N3c1ncnc(Oc2cccnc2C)c1C
> 30	CC[C@H](C)OC(=O)N1C2CC3CC1CC(C2)N3c1ncnc(Oc2cccnc2C)c1C
> 30	Cc1ncccc1Oc1ncnc(N2C3CC4CC2CC(C3)N4C(=O)OC2(C)CCC2)c1C
